The values below come from US8940898B2, “Piperidinyl alkyne orexin receptor antagonists” (Merck Sharp & Dohme Corp., priority 2011, dated 2015).

Assay [1] deals with T1, human orexin-2 receptor (Homo sapiens, UniProt O43614).
T1 construct: expressed in transfected cells; host or cells: CHO cells (membranes)
T1 sequence (O43614 1-444): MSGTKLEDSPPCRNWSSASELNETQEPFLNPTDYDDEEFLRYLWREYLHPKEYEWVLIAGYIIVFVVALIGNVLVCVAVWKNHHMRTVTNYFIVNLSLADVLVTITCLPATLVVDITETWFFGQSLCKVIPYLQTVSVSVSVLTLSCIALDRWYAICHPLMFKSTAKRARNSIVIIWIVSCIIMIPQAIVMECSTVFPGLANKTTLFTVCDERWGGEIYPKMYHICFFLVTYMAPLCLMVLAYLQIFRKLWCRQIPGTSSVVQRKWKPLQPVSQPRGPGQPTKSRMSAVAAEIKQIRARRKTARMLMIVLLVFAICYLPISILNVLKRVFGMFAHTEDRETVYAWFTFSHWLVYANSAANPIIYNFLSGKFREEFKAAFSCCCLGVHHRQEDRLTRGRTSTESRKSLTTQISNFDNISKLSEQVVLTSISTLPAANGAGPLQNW
In words: radioligand binding assay, OX2 receptor (hOX2 Bind hKi). The following applies: membranes from CHO cells expressing the OX2 receptor. How it is done: The utility of the compounds in accordance with the present invention as orexin receptor OX1R and/or OX2R antagonists may be readily determined without undue experimentation by methodology well known in the art, including the “FLIPR Ca^2+ Flux Assay” (Okumura et al., Biochem. Biophys. Res. Comm. 280:976-981, 2001). In a typical experiment the OX1 and OX2 receptor antagonistic activity of the compounds of the present invention was determined in accordance with the following experimental method. For intracellular calcium measurements, Chinese hamster ovary (CHO) cells expressing the rat orexin-1 receptor or the human orexin-2 receptor, are grown in Iscove's modified DMEM containing 2 mM L-glutamine, […], 1% hypoxanthine-thymidine supplement, 100 U/ml penicillin, 100 μg/ml streptomycin and 10% heat-inactivated fetal calf serum (FCS). The cells are seeded at 20,000 cells/well into Becton-Dickinson black 384-well clear bottom sterile plates coated with poly-D-lysine. All reagents were from GIBCO-Invitrogen Corp. The seeded plates are incubated overnight at 37° C. and 5% CO2. Ala-6,12 human orexin-A as the agonist is prepared as a 1 mM stock solution in 1% bovine serum albumin (BSA) and diluted in assay buffer (HBSS containing 20 mM HEPES, 0.1% BSA and 2.5 mM probenecid, pH7.4) for use in the assay at a final concentration of 70 pM. Test compounds are prepared as 10 mM stock solution in DMSO, then diluted in 384-well plates, first in DMSO, then assay buffer. On the day of the assay, cells are washed 3 times with 100 μl assay buffer and then incubated for 60 min (37° C., 5% CO2) in 60 μl assay buffer containing 1 μM Fluo-4AM ester, 0.02% pluronic acid, and 1% BSA. The dye loading solution is then aspirated and cells are washed 3 times with 100 μl assay buffer. 30 μl of that same buffer is left in each well. Within the Fluorescent Imaging Plate Reader (FLIPR, Molecular Devices), test compounds are added to the plate in a volume of 25 μl, incubated for 5 min and finally 25 μl of agonist is added. Fluorescence is measured for each well at 1 second intervals for 5 minutes and the height of each fluorescence peak is compared to the height of the fluorescence peak induced by […] Ala-6,12 orexin-A with buffer in place of antagonist. For each antagonist, IC50 value (the concentration of compound needed to inhibit 50% of the agonist response) is determined. Alternatively, compound potency can be assessed by a radioligand binding assay (described in Bergman et. al. Bioorg. Med. Chem. Lett. 2008, 18, 1425-1430) in which the inhibition constant (Ki) is determined in membranes prepared from CHO cells expressing either the OX1 or OX2 receptor. The intrinsic orexin receptor antagonist activity of a compound which may be used in the present invention may be determined by these assays. The following tables show representative data for the compounds of the Examples as orexin receptor antagonists as determined by the foregoing assays wherein the hOX2 Ki is a measure of the ability of the test compound to inhibit the action of the human orexin-2 receptor and the hOX1R is a measure of the ability of the test compound to inhibit the action of the rat orexin-1 receptor.

Assay [2] concerns the target T2, hOX1 (orexin-1 receptor) (Homo sapiens, UniProt O43613).
T2 construct: expressed in transfected cells; host or cells: CHO cells (membranes)
T2 sequence (O43613 1-425): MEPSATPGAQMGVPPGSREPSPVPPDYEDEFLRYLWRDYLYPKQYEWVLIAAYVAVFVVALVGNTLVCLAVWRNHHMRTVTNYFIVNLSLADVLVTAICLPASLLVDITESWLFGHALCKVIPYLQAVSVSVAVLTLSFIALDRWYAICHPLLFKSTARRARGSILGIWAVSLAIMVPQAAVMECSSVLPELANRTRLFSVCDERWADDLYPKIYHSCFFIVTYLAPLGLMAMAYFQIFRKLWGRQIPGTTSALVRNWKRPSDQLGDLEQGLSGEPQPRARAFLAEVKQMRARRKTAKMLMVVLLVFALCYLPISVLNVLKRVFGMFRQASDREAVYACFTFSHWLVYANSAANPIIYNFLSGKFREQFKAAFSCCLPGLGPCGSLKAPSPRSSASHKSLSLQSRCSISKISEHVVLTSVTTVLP
The assay is described as follows: radioligand binding assay, OX1 receptor (hOX1 Bind hKi). The conditions noted are these: membranes from CHO cells expressing the OX1 receptor.

Where only a bound is given, the exact number is not on record here.

With `Cc1nc(C(=O)N2CCCCC2C#Cc2ccc(F)cn2)c(-c2ccccc2)s1` (stereo not shown) [Example 22, 5-fluoro-2-({1-[(2-methyl-5-phenyl-1,3-thiazol-4-yl)carbonyl]piperidin-2-yl}ethynyl)pyridine], the Ki (usually a measure of affinity in units of concentration, obtained from inhibition or displacement) is above 2300 nM in assay [1] and above 2710 nM in assay [2].
On to `Cc1nc(C(=O)N2CCCCC2C#Cc2ccc(F)cc2)c(-c2ccccc2)s1` (stereo not shown) [Example 23, 2-[(4-fluorophenyl)ethynyl]-1-[(2-methyl-5-phenyl-1,3-thiazol-4-yl)carbonyl]piperidine], for which the Ki amounted to 721 nM in assay [1] and 186 nM in assay [2].
On the same counts, the results for `Cc1nc(C(=O)N2CCCCC2C#Cc2ccc3ccccc3n2)c(-c2ccccc2)s1` (stereo not shown) [Example 24, 2-({1-[(2-methyl-5-phenyl-1,3-thiazol-4-yl)carbonyl]piperidin-2-yl}ethynyl)quinoline] are above 754 nM and 233 nM.
Take `Cc1nc(C(=O)N2CCCCC2C#Cc2cc3ccccc3cn2)c(-c2ccccc2)s1` (stereo not shown) [Example 25, 3-({1-[(2-methyl-5-phenyl-1,3-thiazol-4-yl)carbonyl]piperidin-2-yl}ethynyl)isoquinoline]: the values for the Ki in assay [1] and in assay [2] were above 100 nM and above 364 nM, respectively.
The corresponding values for `Cc1nc(C(=O)N2CCCCC2C#Cc2cnc3ccccc3c2)c(-c2ccccc2)s1` (stereo not shown) [Example 26, 3-({1-[(2-methyl-5-phenyl-1,3-thiazol-4-yl)carbonyl]piperidin-2-yl}ethynyl)quinoline] are above 6120 nM and above 1600 nM.
